# In PMC12030706, “Novel ^177Lu-Labeled [Thz^14]Bombesin(6–14) Derivatives with Low Pancreas Accumulation for Targeting Gastrin-Releasing Peptide Receptor-Expressing Cancer” (Pharmaceuticals, 2025):
# How the values were obtained:
# [1] = test system: PC-3 tumor-bearing NRG mouse; test: Longitudinal SPECT/CT imaging in PC-3 tumor-bearing mice; format: in vivo, mice (NRG); conditions: SPECT/CT images
# Method: The PC-3 tumor-bearing mice were sedated (2.5% isoflurane in O2) and injected with ^177Lu-labeled ligands (15–32 MBq) through a lateral caudal tail vein. […] At each time point, a 5 min CT scan was obtained using 615 μA and 60 kV parameters for localization and attenuation, followed by 2 × 30 min static SPECT scans acquired in list mode with an energy window centered around 208 keV. The MILabs U-SPECT II reconstruction software (version 8.00) was used to reconstruct data, and the images were decay corrected to the time of injection with PMOD v 3.402 (PMOD Technologies GmbH, Fallanden, Switzerland).
# PC-3 tumor-bearing mice = test: Ex vivo biodistribution in PC-3 tumor-bearing mice
# Method: (§1) SPECT/CT imaging experiments were performed using an MILabs (Houten, The Netherlands) U-SPECT-II/CT scanner with a custom-made ultra-high-sensitivity big mouse collimator (2 mm pinhole size) following previously reported procedures. […] Male NOD.Cg-Rag1^tm1Mom Il2rg^tm1Wjl/SzJ (NRG) mice were used in these experiments because of their immunodeficient characteristics and excellent radiation tolerance. Mice were anaesthetized and subcutaneously implanted with 5 × 10^6 PC-3 prostate cancer cells (100 µL; 1:1 PBS/Matrigel) behind the left shoulder. SPECT/CT imaging and biodistribution studies were performed once the tumors reached a diameter of 5–8 mm, typically after approximately 4 weeks of growth.
# (§2) For ex vivo biodistribution studies, the mice were injected with ~2–6 MBq of the radioligand. […] Blocking study was conducted at 1 h post-injection via co-injection of the radioligand with 100 μg of [D-Phe^6,Leu-NHEt^13,des-Met^14]Bombesin(6–14). Organs/tissues of interested were collected, weighed, and measured using an automatic gamma counter.
# [2] = Ex vivo biodistribution in PC-3 tumor-bearing mice; conditions: mouse; for tissue uptake at 4 h: 4 h post-injection; for tissue uptake at 24 h: 24 h post-injection; for tissue uptake at 72 h: 72 h post-injection; for tissue uptake at 120 h: 120 h post-injection
# Method: as §1, §2
# [3] = LogD7.4 measurement, shake flask method; format: physicochemical; conditions: n-octanol/DPBS pH 7.4, n = 3
# Method: The logD7.4 values of all the ^177Lu-labeled GRPR-targeted ligands were measured using the shake flask method as previously reported. An aliquot (~2 MBq) of the radiolabeled product was added to a mixture of n-octanol (3 mL) and DPBS (3 mL, pH 7.4), followed by 1 min vortexing and 15 min centrifugation at 5000 rpm. Samples of the n-octanol (1 mL) and buffer (1 mL) layers were collected, and the activity was counted using a gamma counter. The logD7.4 values were calculated using the following equation: logD7.4=log10[countsn−octanolphase/countsbutterphase]
# [4] = 1 h post-injection, 100 µg [D-Phe6,Leu-NHEt13,des-Met14]Bombesin(6–14)
# [5] = PC-3 tumor, Uptake in PC-3 tumor
# [6] = adrenal glands, Uptake in adrenal glands
# [7] = large intestine, Uptake in large intestine
# [8] = small intestine, Uptake in small intestine
smiles,measurement,setting,value
"CC(C)C[C@@H](CN1CSC[C@H]1C(N)=O)NC(=O)[C@H](Cc1cnc[nH]1)NC(=O)CN(C)C(=O)[C@@H](NC(=O)[C@H](C)NC(=O)[C@H](Cc1c[nH]c2ccccc12)NC(=O)[C@H](CCC(N)=O)NC(=O)[C@@H](Cc1ccccc1)NC(=O)CN1CCC(NC(=O)CN2CCN(CC(=O)O)CCN(CC(=O)O)CCN(CC(=O)O)CC2)CC1)C(C)C [[^177Lu]Lu-TacsBOMB5, metal not drawn]",excretion pathway,[1],excreted mainly via the renal pathway
same,reduction of average pancreas uptake by co-injection of blocker,PC-3 tumor-bearing mice; [4],45%
same,reduction of average tumor uptake by co-injection of blocker,PC-3 tumor-bearing mice; [4],71%
same,uptake in PC-3 tumor xenografts cleared within 24 h,PC-3 tumor-bearing mice; relative to 1 h uptake,Approximately 80%
same,tissue uptake at 1 h,"[2]; PC-3 tumor, 100 ug, Uptake in PC-3 tumor, 1 h blocked (co-injected with 100 µg [D-Phe6,Leu-NHEt13,des-Met14]Bombesin(6-14))",2.53 ± 0.34 %ID/g
same,tissue uptake at 1 h,"[2]; PC-3 tumor, Uptake in PC-3 tumor, 1 h post-injection",8.71 ± 0.53 %ID/g
same,tissue uptake at 4 h,[2]; [5],4.8 ± 0.32 %ID/g
same,tissue uptake at 24 h,[2]; [5],1.77 ± 0.27 %ID/g
same,tissue uptake at 72 h,[2]; [5],1.09 ± 0.19 %ID/g
same,tissue uptake at 120 h,[2]; [5],< 1 %ID/g
same,tissue uptake at 1 h,"[2]; adrenal glands, 100 ug, Uptake in adrenal glands, 1 h blocked (co-injected with 100 µg [D-Phe6,Leu-NHEt13,des-Met14]Bombesin(6-14))",0.17 ± 0.04 %ID/g
same,tissue uptake at 1 h,"[2]; adrenal glands, Uptake in adrenal glands, 1 h post-injection",0.61 ± 0.28 %ID/g
same,tissue uptake at 4 h,[2]; [6],0.29 ± 0.07 %ID/g
same,tissue uptake at 24 h,[2]; [6],0.17 ± 0.02 %ID/g
same,tissue uptake at 72 h,[2]; [6],0.18 ± 0.12 %ID/g
same,tissue uptake at 120 h,[2]; [6],0.12 ± 0.08 %ID/g
same,tissue uptake at 1 h,"[2]; blood, 100 ug, Uptake in blood, 1 h blocked (co-injected with 100 µg [D-Phe6,Leu-NHEt13,des-Met14]Bombesin(6-14))",0.45 ± 0.11 %ID/g
same,tissue uptake at 1 h,"[2]; blood, Uptake in blood, 1 h post-injection",1.77 ± 0.14 %ID/g
same,tissue uptake at 24 h,"[2]; blood, Uptake in blood",0.21 ± 0.02 %ID/g
same,tissue uptake at 72 h,"[2]; blood, Uptake in blood",0.07 ± 0.01 %ID/g
same,tissue uptake at 1 h,"[2]; bone, 100 ug, Uptake in bone, 1 h blocked (co-injected with 100 µg [D-Phe6,Leu-NHEt13,des-Met14]Bombesin(6-14))",0.06 ± 0.03 %ID/g
same,tissue uptake at 1 h,"[2]; bone, Uptake in bone, 1 h post-injection",0.12 ± 0.02 %ID/g
same,tissue uptake at 4 h,"[2]; bone, Uptake in bone",0.09 ± 0.03 %ID/g
same,tissue uptake at 24 h,"[2]; bone, Uptake in bone",0.07 ± 0.02 %ID/g
same,tissue uptake at 72 h,"[2]; bone, Uptake in bone",0.07 ± 0.01 %ID/g
same,tissue uptake at 120 h,"[2]; bone, Uptake in bone",0.07 ± 0.01 %ID/g
same,tissue uptake at 1 h,"[2]; brain, 100 ug, Uptake in brain, 1 h blocked (co-injected with 100 µg [D-Phe6,Leu-NHEt13,des-Met14]Bombesin(6-14))",0.02 %ID/g
same,tissue uptake at 1 h,"[2]; brain, Uptake in brain, 1 h post-injection",0.04 %ID/g
same,tissue uptake at 4 h,"[2]; brain, Uptake in brain",0.02 %ID/g
same,tissue uptake at 1 h,"[2]; fat, 100 ug, Uptake in fat, 1 h blocked (co-injected with 100 µg [D-Phe6,Leu-NHEt13,des-Met14]Bombesin(6-14))",0.06 ± 0.01 %ID/g
same,tissue uptake at 1 h,"[2]; fat, Uptake in fat, 1 h post-injection",0.15 ± 0.04 %ID/g
same,tissue uptake at 4 h,"[2]; fat, Uptake in fat",0.06 ± 0.01 %ID/g
same,tissue uptake at 72 h,"[2]; fat, Uptake in fat",0.02 ± 0.01 %ID/g
same,tissue uptake at 120 h,"[2]; fat, Uptake in fat",0.01 ± 0.01 %ID/g
same,tissue uptake at 1 h,"[2]; heart, 100 ug, Uptake in heart, 1 h blocked (co-injected with 100 µg [D-Phe6,Leu-NHEt13,des-Met14]Bombesin(6-14))",0.15 ± 0.02 %ID/g
same,tissue uptake at 1 h,"[2]; heart, Uptake in heart, 1 h post-injection",0.45 ± 0.06 %ID/g
same,tissue uptake at 4 h,"[2]; heart, Uptake in heart",0.21 ± 0.03 %ID/g
same,tissue uptake at 24 h,"[2]; heart, Uptake in heart",0.09 ± 0.01 %ID/g
same,tissue uptake at 72 h,"[2]; heart, Uptake in heart",0.05 ± 0.01 %ID/g
same,tissue uptake at 120 h,"[2]; heart, Uptake in heart",0.04 ± 0.01 %ID/g
same,tissue uptake at 4 h,"[2]; in vivo, Uptake in blood",0.85 ± 0.03 %ID/g
same,tissue uptake at 24 h,"[2]; in vivo, Uptake in pancreas",0.08 ± 0.02 %ID/g
same,tissue uptake at 72 h,"[2]; in vivo, Uptake in testes",0.08 ± 0.04 %ID/g
same,tissue uptake at 120 h,"[2]; in vivo, Uptake in testes",0.08 ± 0.02 %ID/g
same,tissue uptake at 1 h,"[2]; kidneys, 100 ug, Uptake in kidneys, 1 h blocked (co-injected with 100 µg [D-Phe6,Leu-NHEt13,des-Met14]Bombesin(6-14))",2.78 ± 0.51 %ID/g
same,tissue uptake at 1 h,"[2]; kidneys, Uptake in kidneys, 1 h post-injection",3.47 ± 0.29 %ID/g
same,tissue uptake at 4 h,"[2]; kidneys, Uptake in kidneys",3.1 ± 0.35 %ID/g
same,tissue uptake at 24 h,"[2]; kidneys, Uptake in kidneys",1.38 ± 0.18 %ID/g
same,tissue uptake at 72 h,"[2]; kidneys, Uptake in kidneys",0.6 ± 0.07 %ID/g
same,tissue uptake at 120 h,"[2]; kidneys, Uptake in kidneys",0.39 ± 0.11 %ID/g
same,tissue uptake at 1 h,"[2]; large intestine, 100 ug, Uptake in large intestine, 1 h blocked (co-injected with 100 µg [D-Phe6,Leu-NHEt13,des-Met14]Bombesin(6-14))",0.13 ± 0.04 %ID/g
same,tissue uptake at 1 h,"[2]; large intestine, Uptake in large intestine, 1 h post-injection",0.31 ± 0.09 %ID/g
same,tissue uptake at 4 h,[2]; [7],0.42 ± 0.09 %ID/g
same,tissue uptake at 24 h,[2]; [7],0.42 ± 0.25 %ID/g
same,tissue uptake at 1 h,"[2]; liver, 100 ug, Uptake in liver, 1 h blocked (co-injected with 100 µg [D-Phe6,Leu-NHEt13,des-Met14]Bombesin(6-14))",0.29 ± 0.05 %ID/g
same,tissue uptake at 1 h,"[2]; liver, Uptake in liver, 1 h post-injection",0.67 ± 0.07 %ID/g
same,tissue uptake at 4 h,"[2]; liver, Uptake in liver",0.54 ± 0.04 %ID/g
same,tissue uptake at 24 h,"[2]; liver, Uptake in liver",0.29 ± 0.02 %ID/g
same,tissue uptake at 120 h,"[2]; liver, Uptake in liver",0.16 ± 0.07 %ID/g
same,tissue uptake at 1 h,"[2]; lungs, 100 ug, Uptake in lungs, 1 h blocked (co-injected with 100 µg [D-Phe6,Leu-NHEt13,des-Met14]Bombesin(6-14))",0.37 ± 0.04 %ID/g
same,tissue uptake at 1 h,"[2]; lungs, Uptake in lungs, 1 h post-injection",2.2 ± 0.93 %ID/g
same,tissue uptake at 4 h,"[2]; lungs, Uptake in lungs",1.45 ± 0.34 %ID/g
same,tissue uptake at 24 h,"[2]; lungs, Uptake in lungs",0.25 ± 0.03 %ID/g
same,tissue uptake at 72 h,"[2]; lungs, Uptake in lungs",0.13 ± 0.01 %ID/g
same,tissue uptake at 120 h,"[2]; lungs, Uptake in lungs",0.07 ± 0.03 %ID/g
same,tissue uptake at 1 h,"[2]; muscle, 100 ug, Uptake in muscle, 1 h blocked (co-injected with 100 µg [D-Phe6,Leu-NHEt13,des-Met14]Bombesin(6-14))",0.13 ± 0.03 %ID/g
same,tissue uptake at 1 h,"[2]; muscle, Uptake in muscle, 1 h post-injection",0.22 ± 0.01 %ID/g
same,tissue uptake at 72 h,"[2]; muscle, Uptake in muscle",0.02 %ID/g
same,tissue uptake at 120 h,"[2]; muscle, Uptake in muscle",0.01 %ID/g
same,tissue uptake at 1 h,"[2]; pancreas, 100 ug, Uptake in pancreas, 1 h blocked (co-injected with 100 µg [D-Phe6,Leu-NHEt13,des-Met14]Bombesin(6-14))",0.59 ± 0.11 %ID/g
same,tissue uptake at 1 h,"[2]; pancreas, Uptake in pancreas, 1 h post-injection",1.08 ± 0.22 %ID/g
same,tissue uptake at 4 h,"[2]; pancreas, Uptake in pancreas",0.21 ± 0.01 %ID/g
same,tissue uptake at 72 h,"[2]; pancreas, Uptake in pancreas",0.04 ± 0.01 %ID/g
same,tissue uptake at 120 h,"[2]; pancreas, Uptake in pancreas",0.02 %ID/g
same,tissue uptake at 1 h,"[2]; small intestine, 100 ug, Uptake in small intestine, 1 h blocked (co-injected with 100 µg [D-Phe6,Leu-NHEt13,des-Met14]Bombesin(6-14))",0.26 ± 0.04 %ID/g
same,tissue uptake at 1 h,"[2]; small intestine, Uptake in small intestine, 1 h post-injection",0.6 ± 0.16 %ID/g
same,tissue uptake at 4 h,[2]; [8],0.19 ± 0.05 %ID/g
same,tissue uptake at 24 h,[2]; [8],0.09 ± 0.03 %ID/g
same,tissue uptake at 120 h,[2]; [8],0.02 %ID/g
same,tissue uptake at 1 h,"[2]; spleen, 100 ug, Uptake in spleen, 1 h blocked (co-injected with 100 µg [D-Phe6,Leu-NHEt13,des-Met14]Bombesin(6-14))",0.15 ± 0.02 %ID/g
same,tissue uptake at 1 h,"[2]; spleen, Uptake in spleen, 1 h post-injection",0.31 ± 0.03 %ID/g
same,tissue uptake at 24 h,"[2]; spleen, Uptake in spleen",0.16 ± 0.03 %ID/g
same,tissue uptake at 72 h,"[2]; spleen, Uptake in spleen",0.18 ± 0.05 %ID/g
same,tissue uptake at 120 h,"[2]; spleen, Uptake in spleen",0.14 ± 0.06 %ID/g
same,tissue uptake at 1 h,"[2]; stomach, 100 ug, Uptake in stomach, 1 h blocked (co-injected with 100 µg [D-Phe6,Leu-NHEt13,des-Met14]Bombesin(6-14))",0.06 ± 0.01 %ID/g
same,tissue uptake at 24 h,"[2]; stomach, Uptake in stomach",0.27 ± 0.16 %ID/g
same,tissue uptake at 120 h,"[2]; stomach, Uptake in stomach",0.02 ± 0.02 %ID/g
same,tissue uptake at 1 h,"[2]; testes, 100 ug, Uptake in testes, 1 h blocked (co-injected with 100 µg [D-Phe6,Leu-NHEt13,des-Met14]Bombesin(6-14))",0.18 ± 0.02 %ID/g
same,tissue uptake at 1 h,"[2]; testes, Uptake in testes, 1 h post-injection",0.45 ± 0.11 %ID/g
same,tissue uptake at 24 h,"[2]; testes, Uptake in testes",0.12 ± 0.02 %ID/g
same,logD,[3],-2.53 ± 0.2
